Results taken from US20240376097A1, “BCL-2 Inhibitor” (BeiGene Ltd., priority 2020, published 2024).
Where two headings read alike, the source gives them in different places.

Assays:
Format in all cases: binding
[1] = test system: recombinant human Bcl-2-G101V protein; experiment: Bcl-2-G101V TR-FRET Assay; details: for Ratio of Bcl-2 G101V/WT: ratio of biochemical IC50 Bcl-2 G101V / Bcl-2 WT
Outline: (§1)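 Ex337/em490 & 520 nm TR-FRET; % inhibition of Bcl-2-G101V–ligand interaction from 490:520 ratio vs. increasing compound conc.; IC50 by 4-parameter logistic fit.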

[2] = target: recombinant human Bcl-2-G101V protein (Homo sapiens (Human), UniProt P10415, G101V); experiment: Bcl-2-G101V TR-FRET Assay; details: Bcl-2 G101V mutant, TR-FRET; read-out: Biochemical assay (IC50, nM) Bcl-2 G101V
Outline: as §1

[3] = target: Recombinant human Bcl-2 protein (Homo sapiens (Human), UniProt P10415); experiment: Bcl-2 TR-FRET Assay
Outline: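 Compounds were pre-incubated with 0.05 nM recombinant Bcl-2 for 0.5 h at room temperature in potassium phosphate buffer, pH 7.5. FITC-Bak peptide (0.5 nM) and Tb-cryptate antibody were then added for 1 h. Percent inhibition from TR-FRET signals gave IC50 values.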

[4] = Bcl-2 wild type, TR-FRET, read-out: Biochemical assay (IC50, nM) Bcl-2 WT
[5] = wild type Bcl-2, unit inferred, read-out: Bcl-2 WT

Row | Structure (SMILES) | ratio of IC50 of Bcl-2 G101V/Bcl-2 wt, compared with Example F132b in WO2019210828 and ABT-199 (venetoclax) ([1]; comparison in words) | Ratio of Bcl-2 G101V/WT [1] | IC50 [2] [nM] | IC50 [3, 4] [nM] | IC50 [3, 5] [nM]
1 | COc1ccc(CN2CCN(C3CC4(C3)CN(c3ccc(C(=O)NS(=O)(=O)c5ccc(NC[C@H]6CC[C@](C)(O)CC6)c([N+](=O)[O-])c5)c(Oc5cnc6[nH]ccc6c5)c3)C4)[C@H](c3ccccc3C(C)C)C2)cc1OC [Example 145, 2-((1H-pyrrolo[2,3-b]pyridin-5-yl)oxy)-4-(6-((R)-4-(3,4-dimethoxybenzyl)-2-(2-isopropylphenyl)piperazin-1-yl)-2-azaspiro[3.3]heptan-2-yl)-N-((4-((((1r,4r)-4-hydroxy-4-methylcyclohexyl)methyl)amino)-3-nitrophenyl)sulfonyl)benzamide] | much lower | 3 | 0.084 | 0.028 | 0.028
2 | COc1ccc(CN2CCN(C3CC4(C3)CN(c3ccc(C(=O)NS(=O)(=O)c5ccc(NC[C@H]6CC[C@](C)(O)CC6)c([N+](=O)[O-])c5)c(Oc5cnc6[nH]ccc6c5)c3)C4)[C@H](c3ccccc3C(C)C)C2)cc1 [Example 147, 2-((1H-pyrrolo[2,3-b]pyridin-5-yl)oxy)-N-((4-((((1r,4r)-4-hydroxy-4-methylcyclohexyl)methyl)amino)-3-nitrophenyl)sulfonyl)-4-(6-((R)-2-(2-isopropylphenyl)-4-(4-methoxybenzyl)piperazin-1-yl)-2-azaspiro[3.3]heptan-2-yl) benzamide] | – | 3.1 | 0.17 | 0.054 | 0.054
3 | [2H]C([2H])([2H])Oc1ccc(CN2CCN(C3CC4(CCN(c5ccc(C(=O)NS(=O)(=O)c6ccc(NC[C@H]7CC[C@](C)(O)CC7)c([N+](=O)[O-])c6)c(Oc6cnc7[nH]cc(F)c7c6)c5)CC4)C3)[C@H](c3ccccc3C(C)C)C2)cc1OC([2H])([2H])[2H] [Example 198, 4-(2-((R)-4-(3,4-bis(methoxy-d3)benzyl)-2-(2-isopropylphenyl)piperazin-1-yl)-7-azaspiro[3.5]nonan-7-yl)-2-((3-fluoro-1H-pyrrolo[2,3-b]pyridin-5-yl)oxy)-N-((4-((((1r,4r)-4-hydroxy-4-methylcyclohexyl)methyl)amino)-3-nitrophenyl)sulfonyl)benzamide] | – | 2.4 | 0.17 | 0.072 | 0.072
4 | COc1cc(CN2CCN(C3CC4(C3)CN(c3ccc(C(=O)NS(=O)(=O)c5ccc(NC[C@H]6CC[C@](C)(O)CC6)c([N+](=O)[O-])c5)c(Oc5cnc6[nH]cc(F)c6c5)c3)C4)[C@H](c3ccccc3C(C)C)C2)cc(F)c1OC [Example 230, 2-((3-fluoro-1H-pyrrolo[2,3-b]pyridin-5-yl)oxy)-4-(6-((R)-4-(3-fluoro-4,5-dimethoxybenzyl)-2-(2-isopropylphenyl)piperazin-1-yl)-2-azaspiro[3.3]heptan-2-yl)-N-((4-((((1r,4r)-4-hydroxy-4-methylcyclohexyl)methyl)amino)-3-nitrophenyl)sulfonyl)benzamide] | – | 2.8 | 0.52 | 0.19 | –
5 | COc1cc(CN2CCN(C3CC4(CCN(c5ccc(C(=O)NS(=O)(=O)c6ccc(NC[C@H]7CC[C@](C)(O)CC7)c([N+](=O)[O-])c6)c(Oc6cnc7[nH]ccc7c6)c5)CC4)C3)[C@H](c3ccccc3C(C)C)C2)ccc1C1CC1 [Example 257] | – | 2.5 | 0.99 | 0.4 | –
6 | COc1cc(CN2CCN(C3CC4(C3)CN(c3ccc(C(=O)NS(=O)(=O)c5ccc(NC[C@H]6CC[C@](C)(O)CC6)c([N+](=O)[O-])c5)c(Oc5cnc6[nH]cc(F)c6c5)c3)C4)[C@H](c3ccccc3C(C)C)C2)ccc1C [Example 274, 2-((3-fluoro-1H-pyrrolo[2,3-b]pyridin-5-yl)oxy)-N-((4-((((1r,4r)-4-hydroxy-4-methylcyclohexyl)methyl)amino)-3-nitrophenyl)sulfonyl)-4-(6-((R)-2-(2-isopropylphenyl)-4-(3-methoxy-4-methylbenzyl)piperazin-1-yl)-2-azaspiro[3.3]heptan-2-yl) benzamide] | – | 1.5 | 0.85 | 0.55 | 0.55
7 | COc1cc(CN2CCN(C3CC4(CCN(c5ccc(C(=O)NS(=O)(=O)c6ccc(NC[C@H]7CC[C@](C)(O)CC7)c([N+](=O)[O-])c6)c(Oc6cnc7[nH]cc(F)c7c6)c5)CC4)C3)[C@H](c3ccccc3C(C)C)C2)cc2ccoc12 [Example 281, 2-((3-fluoro-1H-pyrrolo[2,3-b]pyridin-5-yl)oxy)-N-((4-((((1r,4r)-4-hydroxy-4-methylcyclohexyl)methyl)amino)-3-nitrophenyl)sulfonyl)-4-(2-((R)-2-(2-isopropylphenyl)-4-((7-methoxybenzofuran-5-yl)methyl)piperazin-1-yl)-7-azaspiro[3.5]nonan-7-yl)benzamide] | – | 2.3 | 0.99 | 0.43 | 0.43
8 | COc1cc(CN2CCN(C3CC4(CCN(c5ccc(C(=O)NS(=O)(=O)c6ccc(NC[C@H]7CC[C@](C)(O)CC7)c([N+](=O)[O-])c6)c(Oc6cnc7[nH]cc(F)c7c6)c5)CC4)C3)[C@H](c3ccccc3C(C)C)C2)cc2c1OCC2(C)C [Example 285, 2-((3-fluoro-1H-pyrrolo[2,3-b]pyridin-5-yl)oxy)-N-((4-((((1r,4r)-4-hydroxy-4-methylcyclohexyl)methyl)amino)-3-nitrophenyl)sulfonyl)-4-(2-((R)-2-(2-isopropylphenyl)-4-((7-methoxy-3,3-dimethyl-2,3-dihydrobenzofuran-5-yl)methyl)piperazin-1-yl)-7-azaspiro [3.5]nonan-7-yl)benzamide] | – | 3.4 | 0.87 | 0.26 | 0.26
9 | COc1cc(CN2CCN(C3CC4(C3)CN(c3ccc(C(=O)NS(=O)(=O)c5ccc(NC[C@H]6CC[C@](C)(O)CC6)c([N+](=O)[O-])c5)c(Oc5cnc6[nH]cc(F)c6c5)c3)C4)[C@H](c3ccccc3C(C)C)C2)cc2c1OCCC2 [Example 312, 2-((3-fluoro-1H-pyrrolo[2,3-b]pyridin-5-yl)oxy)-N-((4-((((1r,4r)-4-hydroxy-4-methylcyclohexyl)methyl)amino)-3-nitrophenyl)sulfonyl)-4-(6-((R)-2-(2-isopropylphenyl)-4-((8-methoxychroman-6-yl)methyl)piperazin-1-yl)-2-azaspiro[3.3]heptan-2-yl)benzamide] | – | 2.9 | 0.27 | 0.094 | 0.08
10 | COc1cc(CN2CCN(C3CC4(C3)CN(c3ccc(C(=O)NS(=O)(=O)c5ccc(NC[C@H]6CC[C@](C)(O)CC6)c([N+](=O)[O-])c5)c(Oc5cnc6[nH]cc(F)c6c5)c3)C4)[C@H](c3ccccc3C(C)C)C2)ccc1OC1CC1 [Example 321, 4-(6-((R)-4-(4-cyclopropoxy-3-methoxybenzyl)-2-(2-isopropylphenyl)piperazin-1-yl)-2-azaspiro[3.3]heptan-2-yl)-2-((3-fluoro-1H-pyrolo[2,3-b]pyridin-5-yl)oxy)-N-((4-((((1r,4r)-4-hydroxy-4-methylcyclohexy)methyl)amino)-3-nitrophenyl)sulfonyl)benzamide] | – | 2 | 0.35 | 0.17 | 0.17
11 | COc1cc(CN2CCN(C3CC4(C3)CN(c3ccc(C(=O)NS(=O)(=O)c5ccc(NC[C@H]6CC[C@](C)(O)CC6)c([N+](=O)[O-])c5)c(Oc5cnc6[nH]cc(F)c6c5)c3)C4)[C@H](c3ccccc3C(C)C)C2)ccc1N1CCOCC1 [Example 361, 2-((3-fluoro-1H-pyrrolo[2,3-b]pyridin-5-yl)oxy)-N-((4-((((1r,4r)-4-hydroxy-4-methylcyclohexyl)methyl)amino)-3-nitrophenyl)sulfonyl)-4-(6-((R)-2-(2-isopropylphenyl)-4-(3-methoxy-4-morpholinobenzyl)piperazin-1-yl)-2-azaspiro[3.3]heptan-2-yl) benzamide] | – | 3.1 | 0.16 | 0.051 | 0.048
